Each block holds one molecule with its values, some of them ahead of it.
Assays:
[1] = biological target: Histone-lysine N-methyltransferase EZH2 (Homo sapiens, UniProt Q15910); assay: Inhibition of EZH2 methyltransferase activity (unknown origin) assessed `transfer of [3H]methyl group from SAM to substrate by biochemical assay
[2] = biological target: T1, Bromodomain-containing protein 2 (Homo sapiens, UniProt P25440); assay: Binding affinity to BRD2 BD1 domain (unknown origin)
[3] = biological target: T1, Bromodomain-containing protein 2; assay: Binding affinity to BRD2 BD2 domain (unknown origin)
[4] = biological target: T2, Bromodomain-containing protein 3 (Homo sapiens, UniProt Q15059); assay: Binding affinity to BRD3 BD1 domain (unknown origin)
[5] = biological target: T2, Bromodomain-containing protein 3; assay: Binding affinity to BRD3 BD2 domain (unknown origin)
[6] = biological target: T3, Bromodomain-containing protein 4 (Homo sapiens, UniProt O60885); assay: Binding affinity to BRD4 BD1 domain (unknown origin)
[7] = biological target: T3, Bromodomain-containing protein 4; assay: Binding affinity to BRD4 BD2 domain (unknown origin)
[8] = biological target: T4, Protein cereblon/Protein deacetylase HDAC6 (Homo sapiens, UniProt Q96SW2+Q9UBN7); assay: PROTAC activity at HDAC6/CRBN in human MM.1S cells measured after 24 hrs; format: cell-based, MM1.S
[9] = biological target: von Hippel-Lindau disease tumor suppressor/Bromodomain-containing protein 2 (Homo sapiens, UniProt P25440+P40337); assay: PROTAC activity at BRD2/VHL in human 22Rv1 cells assessed as protein degradation measured after 16 hrs; format: cell-based
[10] = biological target: T5, von Hippel-Lindau disease tumor suppressor/Transcription intermediary factor 1-alpha (Homo sapiens, UniProt O15164+P40337); assay: PROTAC activity at TRIM24/VHL (unknown origin) assessed as degradation protein; format: protein assay
Polycomb protein EED [11] = biological target: T6, Polycomb protein EED (Homo sapiens, UniProt O75530); assay: Binding affinity to PRC2 catalytic core EED (unknown origin) by surface plasmon resonance assay
[12] = Inhibition of PRC2 catalytic core MTase activity (unknown origin) by MTase Glo assay; design: species or system Homo sapiens
KARPAS-422 = assay: Antiproliferative activity against human KARPAS-422 cells assessed as growth inhibition after 14 days by Cell Titer-Glo luminescent assay; format: functional; conditions: KARPAS-422, 336 h, time 14 day
[13] = biological target: T7, von Hippel-Lindau disease tumor suppressor/SWI/SNF-related matrix-associated actin-dependent regulator of chromatin subfamily A member 2 (Homo sapiens, UniProt P40337+P51531); assay: PROTAC activity at SMARCA2/VHL in human MV4-11 cells assessed as degradation protein measured after 18 hrs; format: cell-based
[14] = biological target: von Hippel-Lindau disease tumor suppressor/SWI/SNF-related matrix-associated actin-dependent regulator of chromatin subfamily A member 4 (Homo sapiens, UniProt P40337+P51532); assay: PROTAC activity at SMARCA4/VHL in human MV4-11 cells assessed as degradation protein measured after 18 hrs; format: cell-based
[15] = biological target: T8, Protein polybromo-1/von Hippel-Lindau disease tumor suppressor (Homo sapiens, UniProt P40337+Q86U86); assay: PROTAC activity at PBRM1/VHL in human MV4-11 cells assessed as degradation protein measured after 18 hrs; format: cell-based
[16] = biological target: T7, von Hippel-Lindau disease tumor suppressor/SWI/SNF-related matrix-associated actin-dependent regulator of chromatin subfamily A member 2; assay: PROTAC activity at SMARCA2/VHL in human NCI-H1568 cells assessed as degradation protein measured after 18 hrs; format: cell-based
[17] = biological target: T8, Protein polybromo-1/von Hippel-Lindau disease tumor suppressor; assay: PROTAC activity at PBRM1/VHL in human NCI-H1568 cells assessed as degradation protein measured after 18 hrs; format: cell-based
[18] = biological target: SWI/SNF-related matrix-associated actin-dependent regulator of chromatin subfamily A member 2 (Homo sapiens, UniProt P51531); assay: Inhibition of SMARCA2 BD (unknown origin)
[19] = biological target: SWI/SNF-related matrix-associated actin-dependent regulator of chromatin subfamily A member 4 (Homo sapiens, UniProt P51532); assay: Inhibition of SMARCA4 BD (unknown origin)
[20] = Inhibition of […] BD5 (unknown origin); design: species or system Homo sapiens
MV4-11 = assay: Antiproliferative activity against human MV4-11 cells measured after 7 days; format: functional, cell-based; conditions: MV4-11, 168 h
SK-MEL-5 = assay: Antiproliferative activity against human SK-MEL-5 cells measured after 7 days; format: functional, cell-based; conditions: SK-MEL-5, 168 h
[21] = Antiproliferative activity against human NCI-H1568 cells measured after 7 days; format: functional, cell-based; conditions: NCI-H1568, 168 h
Histone deacetylase 1 = Histone deacetylase 1 (Homo sapiens, UniProt Q13547); assay: Inhibition of human recombinant GST-tagged HDAC1 incubated for 20 mins by HDAC Glo assay
Histone deacetylase 2 = Histone deacetylase 2 (Homo sapiens, UniProt Q92769); assay: Inhibition of human recombinant GST-tagged HDAC2 incubated for 20 mins by HDAC Glo assay
Histone deacetylase 3 = Histone deacetylase 3 (Homo sapiens, UniProt O15379); assay: Inhibition of human recombinant HDAC3 incubated for 20 mins by HDAC Glo assay
[22] = biological target: Protein deacetylase HDAC6 (Homo sapiens, UniProt Q9UBN7); assay: Inhibition of human recombinant GST-tagged HDAC6 incubated for 20 mins by HDAC Glo assay
Histone deacetylase 8 = Histone deacetylase 8 (Homo sapiens, UniProt Q9BY41); assay: Inhibition of human recombinant His-tagged HDAC8 incubated for 20 mins by HDAC Glo assay
[23] = biological target: Polyamine deacetylase HDAC10 (Homo sapiens, UniProt Q969S8); assay: Inhibition of human recombinant His-tagged HDAC10 incubated for 20 mins by HDAC Glo assay
[24] = biological target: Histone-lysine N-methyltransferase EZH1 (Homo sapiens, UniProt Q92800); assay: Inhibition of EZH1 methyltransferase activity (unknown origin) assessed `transfer of [3H]methyl group from SAM to substrate by biochemical assay
[25] = biological target: von Hippel-Lindau disease tumor suppressor/Polycomb protein EED (Homo sapiens, UniProt O75530+P40337); assay: PROTAC activity at PRC2 catalytic core EED/VHL (unknown origin) measured after 24 hrs by Western blot analysis; format: protein assay
[26] = biological target: von Hippel-Lindau disease tumor suppressor/Histone-lysine N-methyltransferase EZH2 (Homo sapiens, UniProt P40337+Q15910, Y641N); assay: PROTAC activity at PRC2 catalytic core EZH2/EZH2 Y641N mutant/VHL (unknown origin) measured after 24 hrs by Western blot analysis
[27] = biological target: von Hippel-Lindau disease tumor suppressor/Polycomb protein SUZ12 (Homo sapiens, UniProt P40337+Q15022); assay: PROTAC activity at PRC2 catalytic core SUZ12/VHL in human DLBCL cells measured after 24 hrs by Western blot analysis; format: cell-based
Polycomb protein EED [28] = biological target: T6, Polycomb protein EED; assay: Inhibition of PRC2 catalytic core EED (unknown origin)
[29] = biological target: T5, von Hippel-Lindau disease tumor suppressor/Transcription intermediary factor 1-alpha; assay: PROTAC activity at TRIM24/VHL in human HEK293FT cells assessed as degradation protein at 5 uM measured after 24 hrs; format: cell-based
Target sequence in this assay (O15164 whole entry, looked up): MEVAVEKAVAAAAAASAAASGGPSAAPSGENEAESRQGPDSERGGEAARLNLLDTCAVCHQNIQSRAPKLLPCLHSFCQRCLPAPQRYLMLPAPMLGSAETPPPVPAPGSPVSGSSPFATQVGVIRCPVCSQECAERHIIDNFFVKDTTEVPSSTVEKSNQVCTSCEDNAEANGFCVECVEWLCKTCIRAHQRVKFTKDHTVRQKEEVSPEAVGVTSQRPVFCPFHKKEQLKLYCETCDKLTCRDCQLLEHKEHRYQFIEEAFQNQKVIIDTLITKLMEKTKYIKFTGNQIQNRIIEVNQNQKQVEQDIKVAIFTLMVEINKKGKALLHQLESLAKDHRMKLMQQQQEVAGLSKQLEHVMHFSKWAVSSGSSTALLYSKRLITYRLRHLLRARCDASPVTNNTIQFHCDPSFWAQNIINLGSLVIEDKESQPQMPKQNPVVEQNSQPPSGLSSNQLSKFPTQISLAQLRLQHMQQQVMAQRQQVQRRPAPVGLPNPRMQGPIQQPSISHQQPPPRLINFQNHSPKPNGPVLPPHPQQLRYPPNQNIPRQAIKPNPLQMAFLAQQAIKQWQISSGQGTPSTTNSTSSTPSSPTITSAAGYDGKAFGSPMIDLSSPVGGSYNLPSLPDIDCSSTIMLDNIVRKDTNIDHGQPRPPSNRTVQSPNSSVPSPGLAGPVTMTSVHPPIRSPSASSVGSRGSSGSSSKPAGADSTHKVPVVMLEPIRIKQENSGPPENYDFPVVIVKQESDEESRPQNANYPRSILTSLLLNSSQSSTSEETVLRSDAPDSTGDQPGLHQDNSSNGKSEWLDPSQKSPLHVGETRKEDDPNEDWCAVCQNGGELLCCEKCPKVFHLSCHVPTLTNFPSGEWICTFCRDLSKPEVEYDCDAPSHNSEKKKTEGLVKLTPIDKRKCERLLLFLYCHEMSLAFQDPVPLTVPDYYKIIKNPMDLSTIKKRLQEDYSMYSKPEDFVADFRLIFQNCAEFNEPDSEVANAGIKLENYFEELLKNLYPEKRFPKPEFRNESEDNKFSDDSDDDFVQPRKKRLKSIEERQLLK
Target sequence in this assay (P40337 whole entry, looked up): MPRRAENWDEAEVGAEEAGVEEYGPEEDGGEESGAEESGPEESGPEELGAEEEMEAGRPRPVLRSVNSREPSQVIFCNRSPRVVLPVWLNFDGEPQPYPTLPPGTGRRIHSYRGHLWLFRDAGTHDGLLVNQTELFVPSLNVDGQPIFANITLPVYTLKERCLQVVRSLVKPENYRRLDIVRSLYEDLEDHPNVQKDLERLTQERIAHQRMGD

[30] = biological target: T5, von Hippel-Lindau disease tumor suppressor/Transcription intermediary factor 1-alpha; assay: PROTAC activity at TRIM24/VHL in human MOLM-13 cells assessed as degradation protein at 5 uM measured after 24 hrs; format: cell-based
Target sequence in this assay (O15164 whole entry, looked up): as the sequence (O15164 whole entry, looked up) above
Target sequence in this assay (P40337 whole entry, looked up): as the sequence (P40337 whole entry, looked up) above

[31] = biological target: T4, Protein cereblon/Protein deacetylase HDAC6; assay: PROTAC activity at HDAC6/CRBN in human MM.1S cells; format: cell-based, MM1.S
MM1.S = assay: Growth inhibition of human MM1.S cells; format: functional

T1 sequence (P25440 whole entry, the tested form may be a part): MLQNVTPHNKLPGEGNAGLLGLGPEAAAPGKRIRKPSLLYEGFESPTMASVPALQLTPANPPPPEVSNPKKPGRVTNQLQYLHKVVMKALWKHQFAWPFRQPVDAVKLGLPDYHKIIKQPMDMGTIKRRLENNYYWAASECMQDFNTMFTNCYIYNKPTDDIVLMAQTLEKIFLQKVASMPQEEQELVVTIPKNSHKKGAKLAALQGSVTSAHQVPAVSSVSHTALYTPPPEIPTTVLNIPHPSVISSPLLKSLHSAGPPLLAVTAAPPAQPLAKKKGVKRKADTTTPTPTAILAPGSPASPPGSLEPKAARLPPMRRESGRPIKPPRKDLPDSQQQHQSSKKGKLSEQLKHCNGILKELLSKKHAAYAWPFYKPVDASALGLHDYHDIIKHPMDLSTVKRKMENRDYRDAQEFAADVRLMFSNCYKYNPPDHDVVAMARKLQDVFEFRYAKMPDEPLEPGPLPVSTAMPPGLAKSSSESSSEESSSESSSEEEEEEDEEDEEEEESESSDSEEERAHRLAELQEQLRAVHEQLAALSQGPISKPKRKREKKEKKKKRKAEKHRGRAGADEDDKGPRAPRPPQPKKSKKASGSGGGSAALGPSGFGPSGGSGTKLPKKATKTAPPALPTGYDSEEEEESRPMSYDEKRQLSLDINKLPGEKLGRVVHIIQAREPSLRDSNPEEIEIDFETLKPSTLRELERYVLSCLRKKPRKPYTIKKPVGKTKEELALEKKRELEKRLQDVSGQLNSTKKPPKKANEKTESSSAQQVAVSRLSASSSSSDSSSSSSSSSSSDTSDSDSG
T6 sequence (O75530 whole entry): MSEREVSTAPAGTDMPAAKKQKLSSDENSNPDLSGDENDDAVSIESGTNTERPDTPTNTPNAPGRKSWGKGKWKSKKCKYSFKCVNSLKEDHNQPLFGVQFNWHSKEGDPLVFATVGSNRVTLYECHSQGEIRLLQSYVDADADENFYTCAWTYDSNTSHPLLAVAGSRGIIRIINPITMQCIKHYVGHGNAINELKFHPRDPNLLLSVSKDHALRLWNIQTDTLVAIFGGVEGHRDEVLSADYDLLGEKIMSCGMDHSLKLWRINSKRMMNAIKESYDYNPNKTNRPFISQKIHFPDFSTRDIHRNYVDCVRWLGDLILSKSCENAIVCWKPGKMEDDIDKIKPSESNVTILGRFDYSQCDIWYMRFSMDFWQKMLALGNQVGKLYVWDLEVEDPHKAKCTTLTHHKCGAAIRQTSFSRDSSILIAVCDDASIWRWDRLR
T2 sequence (Q15059 whole entry, the tested form may be a part): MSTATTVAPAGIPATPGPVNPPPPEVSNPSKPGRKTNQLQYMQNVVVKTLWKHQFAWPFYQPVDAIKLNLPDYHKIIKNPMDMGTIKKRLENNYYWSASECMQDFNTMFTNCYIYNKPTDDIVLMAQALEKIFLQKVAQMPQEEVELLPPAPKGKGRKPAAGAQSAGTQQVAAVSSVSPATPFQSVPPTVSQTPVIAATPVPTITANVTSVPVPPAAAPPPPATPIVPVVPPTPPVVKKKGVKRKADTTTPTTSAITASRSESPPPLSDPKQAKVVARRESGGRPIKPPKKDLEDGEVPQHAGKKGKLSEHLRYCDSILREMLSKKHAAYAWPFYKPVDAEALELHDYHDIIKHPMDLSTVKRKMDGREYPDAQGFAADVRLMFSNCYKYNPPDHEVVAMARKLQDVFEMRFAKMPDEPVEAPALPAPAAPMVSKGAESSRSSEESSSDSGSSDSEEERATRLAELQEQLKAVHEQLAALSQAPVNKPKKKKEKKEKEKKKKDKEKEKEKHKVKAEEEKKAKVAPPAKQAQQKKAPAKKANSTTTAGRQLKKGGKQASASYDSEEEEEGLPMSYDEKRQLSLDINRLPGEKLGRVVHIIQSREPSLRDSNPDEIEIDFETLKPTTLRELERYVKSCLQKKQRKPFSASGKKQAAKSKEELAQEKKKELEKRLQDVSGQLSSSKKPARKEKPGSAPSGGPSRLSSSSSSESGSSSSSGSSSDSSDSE
T8 sequence (Q86U86 whole entry): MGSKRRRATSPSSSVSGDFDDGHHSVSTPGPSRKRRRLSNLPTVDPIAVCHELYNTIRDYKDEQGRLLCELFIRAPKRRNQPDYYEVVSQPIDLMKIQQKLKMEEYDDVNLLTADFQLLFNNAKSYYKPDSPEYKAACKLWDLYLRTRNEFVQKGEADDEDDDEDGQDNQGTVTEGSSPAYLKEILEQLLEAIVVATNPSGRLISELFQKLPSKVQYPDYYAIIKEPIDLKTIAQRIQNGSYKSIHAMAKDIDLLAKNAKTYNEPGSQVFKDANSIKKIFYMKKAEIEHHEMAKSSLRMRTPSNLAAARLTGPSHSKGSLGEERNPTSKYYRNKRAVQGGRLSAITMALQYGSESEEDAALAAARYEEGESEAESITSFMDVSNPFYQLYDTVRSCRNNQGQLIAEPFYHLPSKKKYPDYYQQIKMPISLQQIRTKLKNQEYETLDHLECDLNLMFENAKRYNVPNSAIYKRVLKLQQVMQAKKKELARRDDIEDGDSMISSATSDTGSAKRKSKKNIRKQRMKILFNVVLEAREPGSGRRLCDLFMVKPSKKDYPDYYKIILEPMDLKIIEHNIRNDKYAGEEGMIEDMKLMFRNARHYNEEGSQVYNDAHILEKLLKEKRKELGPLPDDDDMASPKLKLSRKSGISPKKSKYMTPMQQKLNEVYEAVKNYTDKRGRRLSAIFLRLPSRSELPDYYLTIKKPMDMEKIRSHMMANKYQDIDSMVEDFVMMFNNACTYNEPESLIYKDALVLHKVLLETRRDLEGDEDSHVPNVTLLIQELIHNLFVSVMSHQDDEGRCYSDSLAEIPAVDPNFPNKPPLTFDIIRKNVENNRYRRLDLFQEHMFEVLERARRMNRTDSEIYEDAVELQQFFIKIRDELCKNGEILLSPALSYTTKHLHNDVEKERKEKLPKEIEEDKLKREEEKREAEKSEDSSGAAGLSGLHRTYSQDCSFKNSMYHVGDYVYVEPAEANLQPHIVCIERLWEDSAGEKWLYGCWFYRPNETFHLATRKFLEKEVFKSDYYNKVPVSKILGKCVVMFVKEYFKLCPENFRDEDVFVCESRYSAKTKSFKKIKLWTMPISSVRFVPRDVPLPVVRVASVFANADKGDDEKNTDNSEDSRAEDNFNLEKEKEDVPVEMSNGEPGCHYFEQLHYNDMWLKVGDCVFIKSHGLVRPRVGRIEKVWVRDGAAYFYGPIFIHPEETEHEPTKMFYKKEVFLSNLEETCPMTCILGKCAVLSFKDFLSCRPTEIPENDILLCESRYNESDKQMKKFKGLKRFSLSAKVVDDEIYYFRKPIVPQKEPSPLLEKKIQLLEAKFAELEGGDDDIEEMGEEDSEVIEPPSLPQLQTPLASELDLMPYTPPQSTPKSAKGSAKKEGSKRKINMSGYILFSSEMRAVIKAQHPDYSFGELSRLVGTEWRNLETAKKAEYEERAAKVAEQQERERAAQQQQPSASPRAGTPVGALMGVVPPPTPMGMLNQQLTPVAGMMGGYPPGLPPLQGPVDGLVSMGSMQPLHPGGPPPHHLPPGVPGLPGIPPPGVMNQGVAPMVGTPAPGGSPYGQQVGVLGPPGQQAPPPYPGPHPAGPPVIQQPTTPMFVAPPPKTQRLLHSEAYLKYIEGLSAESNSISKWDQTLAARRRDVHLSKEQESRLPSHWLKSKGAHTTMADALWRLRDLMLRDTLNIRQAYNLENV
T8 sequence (P40337 whole entry): as the sequence (P40337 whole entry, looked up) above

IC50 [1]: 120 nM
Compound: Cc1cc(C)c(CNC(=O)c2cc(-c3ccc(N4CCN(CCNC(=O)CC56CC7CC(CC(C7)C5)C6)CC4)nc3)cc3c2cnn3C(C)C)c(=O)[nH]1

Kd [2]: 111 nM | Kd [3]: 94 nM | Kd [4]: 35 nM | Kd [5]: 39 nM | Kd [6]: 75 nM | Kd [7]: 44 nM
Compound: CC(=O)N[C@H](C(=O)N1C[C@H](O)C[C@H]1C(=O)NCc1ccc(-c2scnc2C)cc1)C(C)(C)SCCCCCNC(=O)C[C@@H]1N=C(c2ccc(Cl)cc2)c2c(sc(C)c2C)-n2c(C)nnc21

EC50 [8]: 3.2 nM
Compound: CCCCN(Cc1ccc(C(=O)NO)cc1)C(=O)Nc1ccc(NC(=O)CCCc2cn(CCOCCNc3cccc4c3C(=O)N(C3CCC(=O)NC3=O)C4=O)nn2)cc1 (stereo unspecified)

Kd [2]: 34 nM | Kd [3]: 4.7 nM | EC50 [9]: < 5 nM
Compound: Cc1ncsc1-c1ccc([C@H](C)NC(=O)[C@@H]2C[C@@H](O)CN2C(=O)C(NC(=O)COCCCOCCNC(=O)C[C@@H]2N=C(c3ccc(Cl)cc3)c3c(sc(C)c3C)-n3c(C)nnc32)C(C)(C)C)cc1 (single isomer, unassigned)

IC50 [10]: 43 nM
Compound: CCCOc1cccc(Oc2cc3c(cc2NS(=O)(=O)c2ccc(OC)c(OC)c2)n(C)c(=O)n3C)c1

Compound: Cc1nc(CCC(=O)NCCCCC(=O)N[C@@H](C(=O)N2C[C@H](O)C[C@H]2C(=O)NCc2ccc(-c3scnc3C)cc2)C(C)(C)C)ccc1-c1cnc(NCc2c(F)ccc3c2CCO3)n2cnnc12
Kd (Polycomb protein EED [11]): 0.537 nM | pIC50 [12]: 8.11 | GI50 (KARPAS-422): 57 nM

EC50 [13]: 6 nM | EC50 [14]: 11 nM | EC50 [15]: 32 nM | EC50 [16]: 3.3 nM | EC50 [17]: 15.6 nM | IC50 [18]: 770 nM | IC50 [19]: 560 nM | IC50 [20]: 504 nM | IC50 (MV4-11): 28 nM | IC50 (SK-MEL-5): 77 nM
Compound: Cc1ncsc1-c1ccc(CNC(=O)[C@H]2C[C@H](O)CN2C(=O)[C@H](NC(=O)C2(F)CC2)C(C)(C)C)c(OCCOc2ccc(CN3CCN(c4cc(-c5ccccc5O)nnc4N)CC3)cc2)c1
IC50 [21]: 68 nM

Compound: Cc1nc(CCC(=O)NCCOc2ccc(OCC(=O)N[C@@H](C(=O)N3C[C@H](O)C[C@H]3C(=O)NCc3ccc(-c4scnc4C)cc3)C(C)(C)C)cc2)ccc1-c1cnc(NCc2c(F)ccc3c2CCO3)n2cnnc12
Kd (Polycomb protein EED [11]): 0.955 nM | pIC50 [12]: 8.17 | GI50 (KARPAS-422): 45 nM

IC50 (Histone deacetylase 1): 2.28 nM | IC50 (Histone deacetylase 2): 3.12 nM | IC50 (Histone deacetylase 3): 1.82 nM | IC50 [22]: 35.8 nM | IC50 (Histone deacetylase 8): 60.3 nM | IC50 [23]: 11.1 nM
Compound: COc1ccc(/C=N/NC(=O)CCCCCCCC(=O)NO)cc1

IC50 [24]: > 2500 nM
Compound: Cc1cc(C)c(CNC(=O)c2cc(-c3ccc(N4CCN(C(C)C)CC4)nc3)cc3c2cnn3C(C)C)c(=O)[nH]1

Compound: Cc1ncsc1-c1ccc(CNC(=O)[C@@H]2C[C@@H](O)CN2C(=O)[C@@H](NC(=O)CCCNC(=O)c2ccc(-c3cnc(NCc4ccco4)n4cnnc34)cc2)C(C)(C)C)cc1
EC50 [25]: 610 nM | EC50 [26]: 300 nM | EC50 [27]: 590 nM | IC50 (Polycomb protein EED [28]): 247 nM

Activity [29]: 72% | Activity [30]: 72%
Compound: CCCOc1cccc(Oc2cc3c(cc2NS(=O)(=O)c2cccc(C(=O)NCCOCCOCCOCC(=O)N[C@H](C(=O)N4C[C@H](O)C[C@H]4C(=O)NCc4ccc(-c5scnc5C)cc4)C(C)(C)C)c2)n(C)c(=O)n3C)c1

EC50 [31]: 3.8 nM | GI50 (MM1.S): 1210 nM
Compound: O=C1CCC(N2C(=O)c3cccc(NCCOCCOCCn4cc(CCCCN(Cc5ccc(C(=O)NO)cc5)C(=O)Nc5ccccc5)nn4)c3C2=O)C(=O)N1 (stereo unspecified)

Kd (Polycomb protein EED [11]): 0.245 nM | pIC50 [12]: 8.43
Compound: CNC(=O)CCc1ccc(-c2cnc(NCc3c(F)ccc4c3CCO4)n3cnnc23)c(C)n1

Reference: ChEMBL document CHEMBL5230109, “Recent advances in epigenetic proteolysis targeting chimeras (Epi-PROTACs)” (Eur J Med Chem, 2020)
